In US6232089A, “CD23 processing enzyme preparation” (SmithKline Beecham Corporation, priority 1998, dated 2001):
Entries after “also recorded” stand apart in the source; their conditions may differ. Where a name gives a salt, the structure may show the parent alone. Blank lines part the entries; values can stand above or below the compound they belong to.

Tests used:
CD23 processing enzyme [1] = assay: Membrane CD23 cleavage activity assay (sCD23 release from plasma membranes of RPMI 8866 cells); format: biochemical, human; details: for IC50: membranes, read-out: IC50 for inhibition of CD23 processing (production of sCD23)
Description: Membrane CD23 cleavage activity assay:
Plasma membranes from RPMI 8866 cells, a human Epstein-Barr virus transformed B-cell (Sarfati et al., Immunology 60 (1987) 539-547), or a similar cell line expressing high levels of CD23 are purified using an aqueous extraction method. Cells resuspended in homogenization buffer (20 mM HEPES pH 7.4, 150 mM NaCl, 1.5 mM MgCl2, 1 mM DTT) are broken by N2 cavitation in a Parr bomb and the plasma membrane fraction mixed with other membranes recovered by centrifugation at 10,000×g. The light pellet is resuspended in 0.2 M potassium phosphate, pH 7.2 using 2 ml per 1-3 g wet cells and the nuclear pellet is discarded. The membranes are further fractionated by partitioning between Dextran 500 (6.4% w/w) and polyethylene glycol (PEG) 5000 (6.4% w/w) at 0.25 M sucrose in a total of 16 g per 10-15 mg membrane proteins (Morre and Morre, BioTechniques 7, 946-957 (1989)). The phases are separated by brief centrifugation at 1000×g and the PEG (upper) phase is collected, diluted 3-5 fold with 20 mM potassium phosphate buffer pH 7.4, and centrifuged at 100,000×g to recover membranes in that phase. The pellet is resuspended in phosphate-buffered saline and consists of 3-4 fold enriched plasma membranes as well as some other cell membranes (e.g. lysosomes, Golgi). The membranes are aliquoted and stored at -80° C. Fractionation at 6.6% Dextran/PEG yields plasma membranes enriched 10-fold.
The fractionated membranes are incubated at 37° C. for times up to 4 hours to produce fragments of CD23 which are separated from the membrane after quenching the assay with 5 uM compound 1 by centrifugation at 10,000×g. These CD23 fragments are consistent with those reported (Letellier et al, J Exp. Med. 172, 693-700 (1990)): MW, app 36-37 kDa as determined by 12% sodium dodecylsulfate-polyacrylamide electrophoresis (SDS-PAGE) of N-terminal sequence QKSQ; MW, app 33 kDa with N-terminal sequence LKSQ. Additional bands not sequenced: MW, app 28-29 kDa and a doublet at 25-26 kDa. These are detected by Western blot of the total protein in the incubation using a polyclonal antibody such as the polyclonal anti-CD23 antibody in The Binding Site (Birmingham, UK) enzyme-linked immunoassay (EIA) Bindazyme kit for the determination of soluble CD23. Following removal of the membrane by centrifugation or filtration in 0.2 micron filter plates (Durapore, Millpore), sCD23 can also be determined using the EIA kit from The Binding Site or a similar one utilizing MHM6 anti-CD23 mAb (Rowe et al., Int. J. Cancer, 29, 373-382 (1982)) or another anti-CD23 mAb as the capture antibody in a sandwich EIA. […] Samples were incubated at 37° C. for the varying times, quenched with compound 1, applied to 12% SDS-PAGE, and Western blotting on PVDF (Bio-Rad) membrane performed using standard methodology with a combination of BD4 (prepared as described in Biological example 2) and a polyclonal antibody which recognizes all soluble fragments as the primary antibody. The blot was developed by ECL, scanned using a BioImage system and quantitated using the Visage analysis package.
Inhibition of CD23 processing can also be determined by Western blot or by the 5 EIA (Elisa) method. The amount of soluble CD23 made by 0.5-5 ug membrane protein is measured either by quantitation of the Western blot as described using a Millipore BioImage system, or by EIA and compared to the amount made in the presence of various concentrations of inhibitors. Inhibitors are prepared in solutions of water or dimethylsulfoxide (DMSO) and the final DMSO concentration is not more than 2%. The enzyme activity of CD23 processing is inhibited by 1,10-phenanthroline (1 mM), and not by 1,7-phenanthroline (1 mM), PMSF (1 mM), E-64 (10 uM), pepstatin (10 uM), leupeptin (10 uM), or tosyl-leucylchloroketone (100 uM), and weakly by phosphoramidon (40% inhibition at 100 uM). The enzyme can heretofore best be described as a metalloprotease rather than a serine, cysteine or acid protease. […]

CD23 processing enzyme [2] = assay: Solubilized membrane protein CD23 processing enzyme assay; format: biochemical, human; details: concentration not given
CD23 processing activity = assay: Affinity chromatography with compound 8 on streptavidin-agarose; format: binding, human
Description: Affinity Chromatography with compound 8 (compound 28 in synthetic examples)
An affinity column was prepared with compound 8 on streptavidin-agarose beads (Pierce Chemical Co.) by overnight mixing of an estimated five equivalents of compound 8 with beads in 50 mM HEPES, pH 7.5, 0. 1% NP-40 (binding buffer). The column was washed with 20 volumes of this buffer and 20 volumes of 50 mM HEPES pH 7.5, 0.5% NP-40 in a syringe column, and re-equilibrated to binding buffer. An equivalent column with no compound 8 was also prepared. 150 ug of solubilized membranes from RPMI 8866 cells were applied to the both columns, washed with 3 ml binding buffer, 3 ml binding buffer with 0.1 M NaCl, and 3 ml binding buffer with 50 uM compound 2. Each 1 ml fraction was concentrated, diluted 10-fold and reconcentrated if compound 2 was present, and assayed as in biological example 2. For the column with no compound 8, CD23 processing activity was detected primarily in fractions 1-3, with a small amount in fractions 5 and 6.

CD23 processing enzyme [3] = assay: Photolabeling of membranes or solubilized membrane proteins containing the CD23 processing enzyme, 12% SDS-PAGE / 2-dimensional gel electrophoresis; format: binding; details: for molecular weight range of photolabeled bands: 12% SDS-PAGE, ECL detection, several bands
Description: Compound 4 (Synthetic Example 17), Compound 5 (Synthetic Example 17a), Compound 6 (Synthetic Example 25), and Compound 7 (Synthetic Example 27) can also be used to photolabel membranes or solubilized membrane proteins containing the CD23 processing enzyme, using the same method described for compound 3. Analysis by 12% SDS-PAGE and ECL detection of biotinylated protein, using streptavidin-HRP detects several bands in the molecular weight range 50-65 kDa.
Up to 200 ug of membrane proteins in PBS were solubilized in 0.1 % NP-40 and photolabeled with 0.1 to 0.3 uM compound 4 or 1 uM compound 3 as described for compound 3 above. The sample was then dialyzed vs. 10 mM potassium phosphate pH 7.5, 0.1% NP-40, concentrated in a Centricon 10 (Amicon, Beverly Mass.), then made 8 M in urea, 2% in Triton X-100, 0. 8% in Pharmalyte 3-10 (Pharmacia) and 50 mM in DTT. After electrophoresis in both dimensions, the proteins were blotted to PVDF, and biotinylated proteins detected with streptavidin-HRP as described above. The majority of the minor biotinylated spots observed were in the molecular weight range 50-65 kDa and were acidic proteins with pH in the range 4.5-6.0.

CD23 fragments = details: 10-20 mM, cell cultures; cited from earlier work
[4] = 2-dimensional gel electrophoresis, 0.1 to 0.3 uM compound 4 or 1 uM compound 3

- molecular weight range of majority of minor biotinylated spots (CD23 processing enzyme [3]; [4]): 50-65 kDa
- pH range of minor biotinylated spots (acidic proteins) (CD23 processing enzyme [3]; [4]): 4.5-6.0
- molecular weight range of photolabeled bands (CD23 processing enzyme [3]): 50-65 kDa
Structure (SMILES): CC(C)C[C@@H](C(=O)N[C@@H](Cc1ccccc1)C(=O)NCCCCCCNC(=O)CCCC[C@@H]1SC[C@@H]2NC(=O)N[C@@H]21)[C@H](CSCC(=NO)c1ccc(N=[N+]=[N-])cc1)C(=O)NO [Compound 4, N-[4-N' Hydroxyamino-3-(S)-3-[(2-[4-azidophenyl]-2-[hydroxyimino]ethyl)-thiomethyl]-2-(R)-2-(2-methylpropyl)succinyl]-S-phenylalanine-N'-(6biotinoylaminohexyl)amide]

- molecular weight range of photolabeled bands (CD23 processing enzyme [3]): 50-65 kDa
Structure (SMILES): CC(C)C[C@@H](C(=O)N[C@@H](Cc1ccccc1)C(=O)NCCCCCCNC(=O)CCCC[C@@H]1SC[C@@H]2NC(=O)N[C@@H]21)[C@H](CSCC(=O)c1ccc(N=[N+]=[N-])cc1)C(=O)NO [Compound 5, N-[4-Hydroxyamino-3-(S)-3-(4-azidophenacylthiomethyl)-2-(R)-2-(2-methylpropyl)succinyl]-S-phenylalanine-N'-(6-biotinoylaminohexyl)amide]

- molecular weight range of photolabeled bands (CD23 processing enzyme [3]): 50-65 kDa
Structure (SMILES): CC(C)(C)[C@H](NC(=O)[C@H](Cc1ccc(N=[N+]=[N-])cc1)[C@H](O)C(=O)NO)C(=O)NCCCCCCNC(=O)CCCC[C@@H]1SC[C@@H]2NC(=O)N[C@@H]21 [Compound 6, N'-[3S-Hydroxy-4-(N-hydroxyamino)-2R-(4-azidobenzyl)succinyl]-S-tert-leucine-N-(6-biotinoylaminohexyl)amide]

- molecular weight range of photolabeled bands (CD23 processing enzyme [3]): 50-65 kDa
Structure (SMILES): CC(C)C[C@@H](C(=O)N[C@@H](Cc1ccccc1)C(=O)NCCCCCCNC(=O)CCCC[C@@H]1SC[C@@H]2NC(=O)N[C@@H]21)[C@H](CSCc1ccc(C(=O)c2ccccc2)cc1)C(=O)NO [Compound 7, N-[(3-(S)-(4-benzoylbenzyl)thiomethyl-4-(N-Hydroxyamino)-2R-isobutyl)succinyl]-(S)-phenylalanine-N-(6-biotinoylaminohexyl)amide]

The remaining lines, values behind:

Structure (SMILES): c1cnc2c(c1)ccc1cccnc12 [1,10-phenanthroline]
- inhibition of CD23 processing (CD23 processing enzyme [1]; 1 mM): inhibited
- inhibition of activity producing the 33 kDa fragment (CD23 processing enzyme [2]): inhibition; also recorded: inhibited

Structure (SMILES): CNC(=O)[C@H](Cc1ccccc1)NC(=O)[C@H](CC(C)C)[C@H](CSc1cccs1)C(=O)NO [Compound 1, [4-(N-Hydroxyamino)-2-(R)-isobutyl-3-(S)-(2-thiophenethiomethyl)succinyl]-(S)-phenylalanine-N-methylamide, sodium salt]
- inhibition of CD23 processing (CD23 processing enzyme [1]; concentration not given): inhibited
- IC50 (CD23 processing enzyme [1]): 100 ± 50 nM
- inhibition of activity producing the 33 kDa fragment (CD23 processing enzyme [2]): inhibited

Structure (SMILES): CC(C)C[C@H](CC(=O)NO)C(=O)N[C@@H](Cc1ccccc1)C(=O)NCc1ccccc1 [Compound 2]
- inhibition of CD23 processing (CD23 processing enzyme [1]; concentration not given): weaker inhibitor
- IC50 (CD23 processing enzyme [1]): 2000 ± 1000 nM
- elution of CD23 processing activity from affinity column with compound 8 (CD23 processing activity; 50 uM compound 2): specifically eluted

Structure (SMILES): C#CCSC[C@H](C(=O)NO)[C@@H](CC(C)C)C(=O)N[C@@H](Cc1ccccc1)C(=O)NCCCCCCNC(=O)CCCC[C@@H]1SC[C@@H]2NC(=O)N[C@@H]21 [Compound 8, N-[(3-(S)-propargylthiomethyl-4-(N-Hydroxyamino)-2R-isobutyl)succinyl]-(S)-phenylalanine-N-(6-biotinoylaminohexyl)amide]
- inhibition of CD23 processing (CD23 processing enzyme [1]; concentration not given): inhibitor of CD23 cleavage activity
- fractions in which CD23 processing activity was detected, column with compound 8 (CD23 processing activity; binding buffer, then 0.1 M NaCl, then 50 uM compound 2, fractions 1-9): only in fractions 7-9

Structure (SMILES): Cc1ccc(S(=O)(=O)N[C@@H](CCCCN)C(=O)CCl)cc1 [TLCK]
- inhibition of CD23 processing (CD23 processing enzyme [1]; concentration not given): not inhibited

Structure (SMILES): NC(=O)CI [iodoacetamide]
- accumulation of 37 and 33 kDa CD23 fragments (CD23 fragments): results in the accumulation
- accumulation of the 25-27 kDa CD23 fragments (CD23 fragments): prevents the accumulation

Structure (SMILES): CC(C)C[C@H](NP(=O)(O)O[C@@H]1O[C@@H](C)[C@H](O)[C@@H](O)[C@H]1O)C(=O)N[C@@H](Cc1c[nH]c2ccccc12)C(=O)O [phosphoramidon]
- inhibition (CD23 processing enzyme [1]; 100 uM): 40%
- inhibition of CD23 processing (CD23 processing enzyme [1]; 100 uM): weakly
